Among the data in PubChem BioAssay AID1918936 (Molecular Pharmacology Branch, DTP, NCI, 2023) are IC50 and viability, T/C values, retold here.

Where “and” joins values, the source holds several entries; their conditions need not be identical. Identical values can stand only once.

This experiment concerns 349418-098-R-PDC complex spheroid viability. In words: Anticancer human tumor 349418-098-R-PDC patient-derived lung adenocarcinoma cell line growth inhibition. As to conditions: for viability, T/C: stronger effect = lower value. The gist of the method:
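Multicellular complex spheroids of tumor cells with human endothelial cells (HUVEC) and mesenchymal stem cells; the LSD1 inhibitor iadademstat was combined with standard-of-care or investigational agents. Top concentration at or near clinical Cmax, half-log dilutions; final DMSO ≤0.25%.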

Where [1] appears, read: curve of first compound, second compound 0.1 µM.
[2] abbreviates: curve of first compound, second compound 0.316 µM.
Where [3] appears, read: curve of first compound, second compound 1 µM.
[4] abbreviates: curve of first compound, second compound 3.16 µM.
The mark [5] stands for this setting: curve of first compound, second compound 10 µM.
Where [6] appears, read: second compound 0.1 µM, first compound 0.0316 µM.
The mark [7] stands for this setting: second compound 0.1 µM, first compound 0.1 µM.
Where [8] appears, read: second compound 0.1 µM, first compound 0.316 µM.
Setting [9] is: second compound 0.1 µM, first compound 1 µM.
Setting [10] is: second compound 0.316 µM, first compound 0.0316 µM.
[11] abbreviates: second compound 0.316 µM, first compound 0.1 µM.
Setting [12] is: second compound 0.316 µM, first compound 0.316 µM.
[13] abbreviates: second compound 0.316 µM, first compound 1 µM.
[14] abbreviates: second compound 1 µM, first compound 0.0316 µM.
The mark [15] stands for this setting: second compound 1 µM, first compound 0.1 µM.
[16] abbreviates: second compound 1 µM, first compound 0.316 µM.
Where [17] appears, read: second compound 1 µM, first compound 1 µM.
The mark [18] stands for this setting: second compound 3.16 µM, first compound 0.0316 µM.
Where [19] appears, read: second compound 3.16 µM, first compound 0.1 µM.
The mark [20] stands for this setting: second compound 3.16 µM, first compound 0.316 µM.
Where [21] appears, read: second compound 3.16 µM, first compound 1 µM.
Where [22] appears, read: second compound 10 µM, first compound 0.0316 µM.
Setting [23] is: second compound 10 µM, first compound 0.1 µM.
Setting [24] is: second compound 10 µM, first compound 0.316 µM.
[25] abbreviates: second compound 10 µM, first compound 1 µM.
[26] abbreviates: second compound 0.1 µM, first compound 3.16 µM.
Where [27] appears, read: second compound 0.1 µM, first compound 10 µM.
[28] abbreviates: second compound 0.316 µM, first compound 3.16 µM.
Where [29] appears, read: second compound 0.316 µM, first compound 10 µM.
The mark [30] stands for this setting: second compound 1 µM, first compound 3.16 µM.
[31] abbreviates: second compound 1 µM, first compound 10 µM.
Setting [32] is: second compound 3.16 µM, first compound 3.16 µM.
Where [33] appears, read: second compound 3.16 µM, first compound 10 µM.
[34] abbreviates: second compound 10 µM, first compound 3.16 µM.
Where [35] appears, read: second compound 10 µM, first compound 10 µM.

A word on the IC50: it is the concentration at which inhibition is half-maximal. A word on the viability, T/C: it is the ratio of treated to control.
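Also: spheroids exposed to agents for seven days before readout.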
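For viability, T/C in this document: 100% = DMSO vehicle control wells.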

Take `CC1COCCN1c1cc(-c2ccnn2C)c2ccnc(-c3ccn[nH]3)c2n1` (centres undefined) + NC1CC1c1ccc(-c2cccc(O)c2)cc1: the IC50 is, setting by setting: under setting [1], under 3.16 nM; under setting [2], under 3.16 nM; under setting [3], under 3.16 nM; under setting [4], under 3.16 nM; under setting [5], under 3.16 nM. The viability, T/C (second compound 0.1 µM, first compound 0.00316 µM) was 27.6%; the viability, T/C (second compound 0.1 µM, first compound 0.01 µM) was 16.8%; the viability, T/C under setting [6] is 8.87%; the viability, T/C under setting [7] was 6.42%; the viability, T/C under setting [8] was 5.35%; the viability, T/C under setting [9] was 4.21%. Besides, the viability, T/C is, setting by setting: (second compound 0.316 µM, first compound 0.00316 µM) 25.8%; (second compound 0.316 µM, first compound 0.01 µM) 15.6%; under setting [10], 8.79%; under setting [11], 6.08%; under setting [12], 5.05%; under setting [13], 4.22%. Further, the viability, T/C is 23.5% (second compound 1 µM, first compound 0.00316 µM); 14.9% (second compound 1 µM, first compound 0.01 µM); 8.57% under setting [14]; 6.23% under setting [15]; 4.88% under setting [16]; 4.83% under setting [17]. Also, the viability, T/C is, setting by setting: (second compound 3.16 µM, first compound 0.00316 µM) 22%; (second compound 3.16 µM, first compound 0.01 µM) 16%; under setting [18], 8.3%; under setting [19], 5.96%; under setting [20], 5.3%; under setting [21], 4.55%. Besides, the viability, T/C (second compound 10 µM, first compound 0.00316 µM) was 16.9%; the viability, T/C (second compound 10 µM, first compound 0.01 µM) is 12.8%; the viability, T/C under setting [22] is 6.32%; the viability, T/C under setting [23] was 5%; the viability, T/C under setting [24] is 4.59%; the viability, T/C under setting [25] was 3.83%.
For `O=C(c1cc(Cc2n[nH]c(=O)c3ccccc23)ccc1F)N1CCN(C(=O)C2CC2)CC1` + NC1CC1c1ccc(-c2cccc(O)c2)cc1, the IC50 runs as follows: under setting [1], 8910 nM; under setting [2], 8220 nM; under setting [3], 8040 nM; under setting [4], over 10000 nM; under setting [5], 3190 nM. The viability, T/C under setting [6] is 106%; the viability, T/C under setting [7] was 108%; the viability, T/C under setting [8] was 99.3%; the viability, T/C under setting [9] is 99.3%; the viability, T/C under setting [26] was 86%; the viability, T/C under setting [27] is 45.5%. The viability, T/C under setting [10] is 111%; the viability, T/C under setting [11] is 105%; the viability, T/C under setting [12] was 103%; the viability, T/C under setting [13] is 98.5%; the viability, T/C under setting [28] is 77.6%; the viability, T/C under setting [29] was 43.9%. For the same compound, the viability, T/C reads like this: under setting [14], 116%; under setting [15], 106%; under setting [16], 105%; under setting [17], 104%; under setting [30], 69.1%; under setting [31], 45.5%. The viability, T/C is, setting by setting: under setting [18], 116%; under setting [19], 111%; under setting [20], 101%; under setting [21], 105%; under setting [32], 75.5%; under setting [33], 52.3%. Besides, the viability, T/C was 97.1% under setting [22]; 90.3% under setting [23]; 75.2% under setting [24]; 67% under setting [25]; 49.9% under setting [34]; 33.6% under setting [35].
With `CC1(C)CCC(CN2CCN(c3ccc(C(=O)NS(=O)(=O)c4ccc(NCC5CCOCC5)c([N+](=O)[O-])c4)c(Oc4cnc5[nH]ccc5c4)c3)CC2)=C(c2ccc(Cl)cc2)C1`, the viability, T/C is 98.4% and 106% (compound 0.0316 µM); 88.2% and 103% (compound 0.1 µM); 95.9% and 91.1% (compound 0.316 µM); 84.3% and 68.4% (compound 1 µM); 67.7% and 24.9% (compound 3.16 µM); 13.5% and 0.24% (compound 10 µM). The IC50 (curve of compound) is 4560 nM and 1600 nM.
Take `Nc1ccccc1NC(=O)c1ccc(CNC(=O)OCc2cccnc2)cc1`: the viability, T/C was 92.5% and 80.8% (compound 0.00949 µM); 83% and 67.2% (compound 0.03 µM); 63.3% and 46.6% (compound 0.0949 µM); 44.4% and 22.8% (compound 0.3 µM); 17.9% and 5.31% (compound 0.949 µM); 5.6% and 3.19% (compound 3 µM). Also, under “curve of compound”, the IC50 is 200 nM and 77.3 nM.
Regarding `CC1COCCN1c1cc(C2(S(C)(=N)=O)CC2)nc(-c2ccnc3[nH]ccc23)n1` (centres undefined) + NC1CC1c1ccc(-c2cccc(O)c2)cc1, the 50% inhibitory concentration (IC50) is, setting by setting: under setting [1], 1050 nM; under setting [2], 1020 nM; under setting [3], 931 nM; under setting [4], 1070 nM; under setting [5], 709 nM. For the same compound, the viability, T/C under setting [6] is 114%; the viability, T/C under setting [7] is 113%; the viability, T/C under setting [8] is 111%; the viability, T/C under setting [9] was 51.8%; the viability, T/C under setting [26] is 11.8%; the viability, T/C under setting [27] is 10.9%. Further, the viability, T/C under setting [10] was 120%; the viability, T/C under setting [11] is 111%; the viability, T/C under setting [12] was 104%; the viability, T/C under setting [13] is 51.2%; the viability, T/C under setting [28] was 11.5%; the viability, T/C under setting [29] was 9.93%. In addition, the viability, T/C under setting [14] is 115%; the viability, T/C under setting [15] was 116%; the viability, T/C under setting [16] was 115%; the viability, T/C under setting [17] was 45.6%; the viability, T/C under setting [30] is 13.9%; the viability, T/C under setting [31] is 10.7%. The viability, T/C reads like this: under setting [18], 118%; under setting [19], 103%; under setting [20], 115%; under setting [21], 52.3%; under setting [32], 13.3%; under setting [33], 9.27%. In addition, the viability, T/C was 91.3% under setting [22]; 94.1% under setting [23]; 86.6% under setting [24]; 34.3% under setting [25]; 11.2% under setting [34]; 6.83% under setting [35].
